Data from US11944094B1, “Seed germination activator for control of broomrape” (KING FAISAL UNIVERSITY, priority 2023, dated 2024).

Test system: broomrape
Assay: Field experiment: reduction of broomrape biomass by BIP in irrigation water before planting host crops
Assay type: in vivo, Orobanche
Description: Testing was performed to determine the effect of BIP in different plant species as host crops (faba bean, tomato, and potato), soil type (sand soil and light clay soil), application time (late October and late February), and different climactic regions (Al Behera governate and Al Noubareia), using various concentrations of the substrate (100-500 ppm) to increase the inhibitory effect. […] Thus, BIP, when formulated and administered at 100-500 ppm with the irrigation water is an effective bio agent for controlling broomrape.

CCCCOC(=O)c1ccccc1C(=O)OCC(C)C [BIP, butylisobutylphthalate]
reduced broomrape biomass (300 ppm in irrigation water 8-10 days before cultivation, light clay soil for faba beans and potato, sand soil for faba bean, 20th of October): 65% | reduction in broomrape biomass (400 ppm in irrigation water 10 days before planting, sand soil, 15th of February, tomato plants): 69% | increase of inhibition effect relative to the activity observed at 400 ppm (BIP 500 ppm versus 400 ppm): ≤ 10% | % Reduction Broomrape Biomass (Faba bean (Misr-3), cultivation October, light clay soil, BIP 300 ppm): 65.0% | % Reduction Broomrape Biomass (Faba bean (Misr-3), cultivation October, sandy soil, BIP 300 ppm): 59.8% | % Reduction Broomrape Biomass (Potato (Yarla), cultivation September, light clay soil, BIP 325 ppm): 62.3% | % Reduction Broomrape Biomass (Tomato (Star Valley), cultivation February, sandy soil, BIP 400 ppm): 71.8% | reduction of broomrape (lower concentrations of BIP (100-200 ppm)): 15%-18%
